From PubChem BioAssay AID248 (DTP/NCI, 2004)
“And” between values parts separate entries of the source, which are not always exact repeats. Equal entries are not always repeated. Inconclusive results and toxic doses are left out.

Test system: L1210 leukemia ip in BDF1 mice, survival T/C
Test: NCI In Vivo Anticancer Drug Screen. Data for tumor model L1210 Leukemia (intraperitoneal) in B6D2F1 (BDF1) mice
Settings: endpoint: mean survival time, higher = longer survival
How it was run: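 Read-out is survival time, reported as the treated-group measurement over the vehicle-control measurement.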

## Cc1cccc(NC(=O)C(C)(C)C)c1C
dose: 100.0 mg/kg/injection, schedule: Q01DX009 (ip), vehicle: Klucel (hydroxypropylcellulose) (HPC)
  T/C: 106 % of control
dose: 200.0 mg/kg/injection, schedule: Q01DX009 (ip), vehicle: Klucel (hydroxypropylcellulose) (HPC)
  T/C: 95 % of control
dose: 400.0 mg/kg/injection, schedule: Q01DX009 (ip), vehicle: Klucel (hydroxypropylcellulose) (HPC)
  T/C: 101 % of control

## CCCCSc1ncc(C)c(N(C)C)n1
dose: 25.0 mg/kg/injection, schedule: Q01DX Z (ip), vehicle: methylcellulose (MC)
  T/C: 92 % of control
dose: 50.0 mg/kg/injection, schedule: Q01DX Z (ip), vehicle: methylcellulose (MC)
  T/C: 89 % of control

## Cc1ccc(Cl)cc1NC(=O)Nc1cc(C(C)C)ccc1C
dose: 100.0 mg/kg/injection, schedule: Q01DX009 (ip), vehicle: saline with Tween-80
  T/C: 93 % of control and 100 % of control
dose: 100.0 mg/kg/injection, schedule: Q04DX002 (ip), vehicle: saline with Tween-80
  T/C: 100 % of control and 90 % of control
dose: 200.0 mg/kg/injection, schedule: Q01DX009 (ip), vehicle: saline with Tween-80
  T/C: 93 % of control and 91 % of control
dose: 200.0 mg/kg/injection, schedule: Q04DX002 (ip), vehicle: saline with Tween-80
  T/C: 93 % of control and 94 % of control
dose: 400.0 mg/kg/injection, schedule: Q01DX009 (ip), vehicle: saline with Tween-80
  T/C: 86 % of control
dose: 400.0 mg/kg/injection, schedule: Q04DX002 (ip), vehicle: saline with Tween-80
  T/C: 96 % of control and 101 % of control

## CCOC(=O)NP(=O)(N1CC1)N1CC1
dose: 0.16 mg/kg/injection, schedule: Q#A X Z (ip), vehicle: saline
  T/C: 100 % of control
dose: 0.31 mg/kg/injection, schedule: Q#A X Z (ip), vehicle: saline
  T/C: 100 % of control
dose: 0.32 mg/kg/injection, schedule: Q01DX Z (im), vehicle: saline
  T/C: 105 % of control
dose: 0.32 mg/kg/injection, schedule: Q01DX Z (ip), vehicle: saline
  T/C: 102 % of control
dose: 0.62 mg/kg/injection, schedule: Q#A X Z (ip), vehicle: saline
  T/C: 102 % of control
dose: 0.63 mg/kg/injection, schedule: Q01DX Z (im), vehicle: saline
  T/C: 105 % of control
dose: 0.63 mg/kg/injection, schedule: Q01DX Z (ip), vehicle: saline
  T/C: 98 % of control
dose: 0.7 mg/kg/injection, schedule: Q01DX Z (ip), vehicle: carboxymethylcellulose (CMC)
  T/C: 101 % of control
dose: 0.9 mg/kg/injection, schedule: Q03DX006 (ip), vehicle: saline
  T/C: 104 % of control
dose: 1.25 mg/kg/injection, schedule: Q01DX Z (im), vehicle: saline
  T/C: 104 % of control
dose: 1.25 mg/kg/injection, schedule: Q01DX Z (ip), vehicle: saline
  T/C: 105 % of control
dose: 1.25 mg/kg/injection, schedule: Q01DX Z (oral), vehicle: saline
  T/C: 100 % of control
dose: 1.25 mg/kg/injection, schedule: Q#A X Z (ip), vehicle: saline
  T/C: 121 % of control
dose: 1.5 mg/kg/injection, schedule: Q01DX Z (ip), vehicle: carboxymethylcellulose (CMC)
  T/C: 104 % of control
dose: 1.9 mg/kg/injection, schedule: Q03DX006 (ip), vehicle: saline
  T/C: 104 % of control
dose: 2.2 mg/kg/injection, schedule: Q01DX001 (ip), vehicle: saline
  T/C: 101 % of control and 107 % of control
dose: 2.2 mg/kg/injection, schedule: Q07DX003 (ip), vehicle: saline
  T/C: 105 % of control
dose: 2.37 mg/kg/injection, schedule: Q01DX Z (ip), vehicle: carboxymethylcellulose (CMC)
  T/C: 114 % of control
dose: 2.5 mg/kg/injection, schedule: Q01DX Z (im), vehicle: saline
  T/C: 107 % of control
dose: 2.5 mg/kg/injection, schedule: Q01DX Z (ip), vehicle: saline
  T/C: 107 % of control
dose: 2.5 mg/kg/injection, schedule: Q01DX Z (oral), vehicle: saline
  T/C: 107 % of control
dose: 3.0 mg/kg/injection, schedule: Q01DX Z (ip), vehicle: carboxymethylcellulose (CMC)
  T/C: 113 % of control
dose: 3.8 mg/kg/injection, schedule: Q03DX006 (ip), vehicle: saline
  T/C: 105 % of control
dose: 4.4 mg/kg/injection, schedule: Q01DX001 (ip), vehicle: saline
  T/C: 102 % of control
dose: 4.4 mg/kg/injection, schedule: Q07DX003 (ip), vehicle: saline
  T/C: 105 % of control
dose: 5.0 mg/kg/injection, schedule: Q01DX006 (iv), vehicle: saline
  T/C: 100 % of control
dose: 5.0 mg/kg/injection, schedule: Q01DX Z (oral), vehicle: saline
  T/C: 100 % of control
dose: 5.0 mg/kg/injection, schedule: Q01DX Z (sc), vehicle: saline
  T/C: 120 % of control
dose: 5.06 mg/kg/injection, schedule: Q01DX Z (ip), vehicle: carboxymethylcellulose (CMC)
  T/C: 117 % of control
dose: 6.0 mg/kg/injection, schedule: Q01DX Z (ip), vehicle: carboxymethylcellulose (CMC)
  T/C: 158 % of control
dose: 6.33 mg/kg/injection, schedule: Q01DX Z (ip), vehicle: carboxymethylcellulose (CMC)
  T/C: 124 % of control
dose: 7.5 mg/kg/injection, schedule: Q03DX006 (ip), vehicle: saline
  T/C: 119 % of control
dose: 8.7 mg/kg/injection, schedule: Q01DX001 (ip), vehicle: saline
  T/C: 108 % of control
dose: 8.7 mg/kg/injection, schedule: Q07DX003 (ip), vehicle: saline
  T/C: 105 % of control
dose: 8.75 mg/kg/injection, schedule: Q01DX001 (ip), vehicle: saline
  T/C: 113 % of control and 123 % of control
dose: 9.5 mg/kg/injection, schedule: Q01DX Z (ip), vehicle: carboxymethylcellulose (CMC)
  T/C: 157 % of control
dose: 10.0 mg/kg/injection, schedule: Q01DX006 (iv), vehicle: saline
  T/C: 105 % of control
dose: 10.0 mg/kg/injection, schedule: Q01DX Z (im), vehicle: saline
  T/C: 160 % of control
dose: 10.0 mg/kg/injection, schedule: Q01DX Z (ip), vehicle: saline
  T/C: 195 % of control
dose: 10.0 mg/kg/injection, schedule: Q01DX Z (oral), vehicle: saline
  T/C: 115 % of control
dose: 10.0 mg/kg/injection, schedule: Q#A X Z (ip), vehicle: saline
  T/C: 110 % of control
dose: 12.0 mg/kg/injection, schedule: Q01DX Z (ip), vehicle: carboxymethylcellulose (CMC)
  T/C: 115 % of control
dose: 12.66 mg/kg/injection, schedule: Q01DX Z (ip), vehicle: carboxymethylcellulose (CMC)
  T/C: 152 % of control
dose: 15.0 mg/kg/injection, schedule: Q03DX007 (ip), vehicle: saline
  T/C: 182 % of control
dose: 20.0 mg/kg/injection, schedule: Q01DX006 (iv), vehicle: saline
  T/C: 117 % of control
dose: 20.0 mg/kg/injection, schedule: Q01DX Z (im), vehicle: saline
  T/C: 152 % of control
dose: 20.0 mg/kg/injection, schedule: Q01DX Z (sc), vehicle: saline
  T/C: 175 % of control
dose: 24.0 mg/kg/injection, schedule: Q01DX Z (ip), vehicle: carboxymethylcellulose (CMC)
  T/C: 94 % of control and 102 % of control
dose: 30.0 mg/kg/injection, schedule: Q03DX007 (ip), vehicle: saline
  T/C: 165 % of control
dose: 38.0 mg/kg/injection, schedule: Q01DX Z (ip), vehicle: carboxymethylcellulose (CMC)
  T/C: 94 % of control
dose: 40.0 mg/kg/injection, schedule: Q01DX Z (im), vehicle: saline
  T/C: 94 % of control
dose: 40.0 mg/kg/injection, schedule: Q01DX Z (ip), vehicle: saline
  T/C: 103 % of control
dose: 40.0 mg/kg/injection, schedule: Q01DX Z (oral), vehicle: saline
  T/C: 155 % of control
dose: 70.0 mg/kg/injection, schedule: Q07DX001 (ip), vehicle: saline
  T/C: 115 % of control
dose: 80.0 mg/kg/injection, schedule: Q01DX Z (sc), vehicle: saline
  T/C: 111 % of control
dose: 280.0 mg/kg/injection, schedule: Q01DX001 (ip), vehicle: saline
  T/C: 105 % of control
